Reference: patent US12364695B2, “Methods of treating inflammatory disease” (INTRA-CELLULAR THERAPIES, INC., priority 2020, dated 2025)

Legend:
BV2 cells = assay: Microglia chemotaxis assay (Transwell, ADP); assay type: cell-based; conditions: 100 μM ADP, 4 hours, FIG. 10
Method: BV2 cells were added to upper chamber of a 5 μm pore Transwell 96-well plate over a reservoir containing 100 μM ADP and incubated at 37° C. with 5% CO2 for 4 hours. After the incubation cells were harvested with pre-warmed cell detachment solution for 30 minutes in the same incubation conditions. 75 μl of this cell detachment solution was combined with 75 μl of culture medium in a new 96 well plate compatible with a fluorescence reader. Cell number in bottom chamber was determined by adding CyQuant® GR dye and reading in the Envision fluorescence reader at 480 nm EX/520 nm EM.

[1] = tested on: Docosahexaenoic Acid Metabolites; assay: Detection of docosahexaenoic acid metabolites, mouse zymosan pleurisy model; assay type: in vivo; conditions: compared with controls
Method: (§1) Zymosan was injected into the pleural cavities of mice in order to induce sterile inflammation by the methods discussed in Example 1. Compound 1 was administered to test subjects to observe the effects on a variety of inflammatory biomarkers. Results were recorded after 4 hours. […] IFNγ, IL-1β, MCP1-β and TNF-α decreased following administration of Compound 1 in all serum and plasma samples.
(§2) Lipids are known to be involved in regulation of a multitude of cellular responses including cell growth and death, and inflammation/infection, via receptor-mediated pathways. Various lipids are involved in both the initiation and resolution of inflammation. Pro-resolving lipid mediators are produced naturally in the body from unsaturated fatty acids, such as arachidonic acid (AA) and docosahexaenoic acid (DHA). Further studies were carried out to identify metabolites of AA and DHA, which are summarized below in Tables 2 and 3.
(§3) As shown above in relation to AA metabolism, 12-HETE and 15-HETE, both intermediate mediators leading to resolution of inflammation, show increased occurrence compared with controls, while pro-inflammatory mediators TXB2, PGE2 and LTB4 all decrease. For the metabolism of DHA, each of 17-HDOHE, RVD5 and 14-HDOHE increase, all of which are related to resolution of inflammation.

[2] = tested on: leukocytes, neutrophils, and macrophages (M1/M2) at the site of inflammation; assay: Mouse zymosan model of sterile inflammation, flow cytometry of infiltrating cells; assay type: in vivo; conditions: for inflammatory resolution (shift from M1 to M2 macrophages): zymosan injection, FIGS. 1-9
Method: (§4) Zymosan is injected into the pleural cavities of mice in order to induce sterile inflammation. Infiltration of leukocytes, neutrophils, and macrophages are monitored at days 3 and 7 following injection. Detection of various cell types are identified according to the gating strategy outlined in Table 1 below.
In this model, injection of zymosan causes the recruitment of various waves of leukocytes, which are observed and recorded. Exudate volume increases to a maximum over a period of 24 hours, and neutrophils increase within 4 hours and reach a maximum by 48 hours. Lymphocytes of the adaptive immune system enter at a later stage, after three days, which is signaled by macrophages presenting antigens. A resolution phase is well documented in this model and is accompanied by decreased total macrophage number and transition into M2 phenotype.
In the studies, Compounds 1 and 2 were administered to the test subjects, and the effect the compounds had on infiltration of leukocytes, neutrophils, and macrophages was observed.
Similar tests were conducted with Compound 2, the results of which are illustrated in FIGS. 8 and 9. […] An additional test was carried out according to the same method. Mice were injected intraperitoneally with 1 mg Zymosan followed by 10 mg/kg Compound 1. Macrophage levels were recorded at injection, then at 4, 8, 16, 24, 48 and 72 hours post-injection.

[3] = tested on: cytokine markers (IFNγ, IL-1β, MCP1-β, TNF-α, IL10); assay: Inflammatory biomarkers in mouse zymosan pleurisy model; assay type: in vivo; conditions: after 4 hours
Method: as §1

[4] = tested on: Arachidonic Acid Metabolites; assay: Detection of arachidonic acid metabolites, mouse zymosan pleurisy model; assay type: in vivo; conditions: compared with controls
Method: as §1, §2, §3

MCP-1/CCL2 = assay: Cytokine production in plasma following zymosan sterile insult (FIG. 7); assay type: in vivo, mouse; conditions: at 3 and 7 days, in comparison with control groups
Method: FIG. 7 depicts cytokine production in plasma in test subjects following sterile insult when treated with Compound 1.
as §4

## CN1C(=O)c2c(nn(Cc3ccc(-c4cccc(F)n4)cc3)c2Nc2ccccc2)N2C1=N[C@@H]1CCC[C@@H]12 [Compound 1]
BV2 cells
  motility of BV2 cells across the membrane: marked dampening effect
[1]
  14-HDOHE (resolution mediator): Increase
  17-HDOHE (intermediate mediator linked to resolution): Increase
  RVD5 (intermediate mediator linked to resolution): Increase
[2]; 1 mg Zymosan i.p. then 10 mg/kg, all observed times, FIGS. 11A and 11B
  M1 macrophage levels (CD80+, iNOS+): lower
[2]; 10 mg/kg, at 4 hours, FIG. 12A
  Arg1+ M2 macrophages: increased
[2]; 10 mg/kg, relative to control at 2 and 3 days, FIG. 12B
  CD206+ M2 macrophages: significantly increased
[2]; day 3, FIG. 5A
  total numbers of CD38+ macrophages: decreased
[2]; day 3, all animal groups, FIG. 5B
  number of Egr2+ macrophages: decreased
[2]; day 3, increase in all groups, FIG. 6A
  MFI for CD38+ on macrophages: lowest value
[2]; day 7, all groups
  MFI for CD38+ on macrophages: decreased
[2]; day 7, all subjects, FIG. 3B
  percentage of neutrophils relative to CD45+ leukocytes: dropped significantly
[2]; day 7, compared with disease only and vehicle animals, FIG. 3A
  number of neutrophils: less dramatic decrease
[2]; days 3 and 7, compared to naïve, all groups
  MFI for Egr2+ on macrophages: decreased
[2]; overall trend, day 7
  Egr2+ cell number and percent: tended to increase
  number of CD38+ cells: tended to decrease
[2]
  inflammatory resolution (shift from M1 to M2 macrophages): enhanced inflammatory resolution
[3]; serum and plasma
  IFNγ: decreased
  IL-1β: decreased
  MCP1-β: decreased
  TNF-α: decreased
[3]; serum
  IL10: decrease
[4]
  5-HETE (intermediate mediator linked to resolution): No change
  12-HETE (intermediate mediator linked to resolution): Increase
  15-HETE (intermediate mediator linked to resolution): Increase
  LTB4 (pro-inflammatory mediator): No change
  PGE2 (pro-inflammatory mediator): Decrease
  TXB2 (pro-inflammatory mediator): Decrease
MCP-1/CCL2
  inflammatory biomarkers (MCP-1/CCL2) in plasma: less inflammatory biomarkers

## CN1C(=O)c2c(nn(Cc3ccc(-c4ccccn4)cc3)c2Nc2ccccc2)N2C1=N[C@@H]1CCC[C@@H]12 [Compound 2]
[2]; 3 mg/kg, day 7, FIG. 8
  CD38+ macrophages: significant drop
[2]; 3 mg/kg, day 7, FIG. 9
  Erg2+ macrophages: sharp and significant increase
[2]
  inflammatory resolution (shift from M1 to M2 macrophages): enhanced inflammatory resolution
